From patent US7834011B2, “Heterocyclylalkyl derivatives as novel inhibitors of histone deacetylase” (Janssen Pharmaceutica N.V., priority 2006, dated 2010)

How the values were obtained:
[1] = Kinetic solubility in aqueous media C.3.a (nephelometer); format: physicochemical; details: aqueous buffer, kinetic from dmso stock; phosphate citrate buffer pH 7.4, turbidity; read-out: Kinetic solubility score (C.3.a)
Description: The solubility of a compound measures the ability of a compound to stay in solution. In a first method the ability of a compound to stay in aqueous solution upon dilution (see example C.3.a) is measured. DMSO-stock solutions are diluted with a single aqueous buffer solvent in 3 consecutive steps. For every dilution turbidity is measured with a nephelometer.
In the first dilution step, 10 μl of a concentrated stock-solution of the active compound, solubilized in DMSO (5 mM), was added to 100 μl phosphate citrate buffer pH 7.4 and mixed. In the second dilution step, an aliquot (20 μl) of the first dilution step was further dispensed in 100 μl phosphate citrate buffer pH 7.4 and mixed. Finally, in the third dilution step, a sample (20 μl) of the second dilution step was further diluted in 100 μl phosphate citrate buffer pH 7.4 and mixed. All dilutions were performed in 96-well plates. Immediately after the last dilution step the turbidity of the three consecutive dilution steps were measured with a nephelometer. Dilution was done in triplicate for each compound to exclude occasional errors. Based on the turbidity measurements a ranking is performed into 3 classes. Compounds with high solubility obtained a score of 3 and for this compounds the first dilution is clear. Compounds with medium solubility obtained a score of 2. […]

[2] = biological target: histone deacetylase (HeLa nuclear extracts); experiment: In vitro assay for inhibition of histone deacetylase with fluorescent-labelled substrate (Fluor de Lys); format: biochemical
Source text: The in vitro assay for inhibition of histone deacetylase (see example C.1) measures the inhibition of HDAC enzymatic activity obtained with the compounds of formula (I).
The HDAC Fluorescent Activity Assay/Drug Discovery Kit of Biomol (cat. No: AK-500-0001) was used. The HDAC Fluorescent Activity Assay is based on the Fluor de Lys (Fluorogenic Histone deAcetylase Lysyl) substrate and developer combination. The Fluor de Lys substrate, comprises an acetylated lysine side chain. Deacetylation of the substrate sensitizes the substrate so that, in the second step, treatment with the Fluor de Lys developer produces a fluorophore.
HeLa nuclear extracts (supplier: Biomol) were incubated at 60 μg/ml with 75 μM of substrate. The Fluor de Lys substrate was added in a buffer containing 25 mM Tris, 137 mM NaCl, 2.7 mM KCl and 1 mM MgCl2.6H2O at pH 7.4. After 30 min, 1 volume of the developer was added. The fluorophore was excited with 355 nm light and the emitted light (450 nm) was be detected on a fluorometric plate reader.
For each experiment, controls (containing HeLa nuclear extract and buffer), a blank incubation (containing buffer but no HeLa nuclear extract) and samples (containing compound dissolved in DMSO and further diluted in buffer and HeLa nuclear extract) were run in parallel. In first instance, compounds were tested at a concentration of 10^−5M. […] All sample were tested 4 times. In each test the blank value was subtracted from both the control and the sample values. The control sample represented 100% of substrate deactylation. For each sample the fluorescence was expressed as a percentage of the mean value of the controls. […] Herein the effects of test compounds are expressed as pIC50 (the negative log value of the IC50-value) (see Table F-2).

solubility kinetic [1]: > 455 µM
Enzymatic activity pIC50 C.1 [2]: 8.1
Structure (SMILES): Cn1c(CNCC2CCN(c3ncc(C(=O)NO)cn3)CC2)nc2ccccc21 [Compound 3]
